Consider 10 molecules from US6908913B2, “Carbapenem derivatives” (Meiji Seiki Kaisha, Ltd., priority 2000, dated 2005).

The subject of series [1] is B. catarrhalis W-0500. Nature of the series: Antibiotic activities (MIC), agar dilution. The series is classed as cell-based. Conditions: Moraxella catarrhalis, W0500, Sensitivity Disk agar-N+5% Horse blood, inoculant 10^6 CFU/ml, read-out: minimum inhibiting concentration (MIC). How it is done: (§1) The minimum inhibiting concentrations (MIC, μg/ml) of representative compounds among the novel carbapenem derivatives according to the present invention to various pathogenic bacteria were measured in accordance with the method described in CHEMOTHERAPY, vol. 16, No. 1, 99, 1968. The culture medium for measurement was Sensitivity Disk agar-N+5% Horse blood, and the amount of inoculants was 10^6 CFU/ml.
On the technique in general: In agar dilution, organisms are placed on agar that contains the substance at set levels.

For series [2], the system named is K. pneumoniae PCI602. As to the kind of experiment: Antibiotic activities (MIC), agar dilution. The series is classed as cell-based. The following applies: Klebsiella pneumoniae, Sensitivity Disk agar-N+5% Horse blood, inoculant 10^6 CFU/ml, read-out: minimum inhibiting concentration (MIC). How it is done: as §1
Series [3] relates to S. aureus M126 HR (methicillin-hyperresistant strain). Nature of the series: Antibiotic activities (MIC), agar dilution. It counts as cell-based. The following applies: Staphylococcus aureus, Sensitivity Disk agar-N+5% Horse blood, inoculant 10^6 CFU/ml, read-out: minimum inhibiting concentration (MIC). How it is done:
as §1

For series [4], the system named is H. influenzae PRC44. Nature of the series: Antibiotic activities (MIC), agar dilution. It counts as cell-based. The following applies: Haemophilus influenzae, Sensitivity Disk agar-N+5% Horse blood, inoculant 10^6 CFU/ml, read-out: minimum inhibiting concentration (MIC). How it is done: as §1
For series [5], the system named is S. aureus M126 (methicillin-hyperresistant strain). As to the kind of experiment: Antibiotic activities (MIC), agar dilution. It counts as cell-based. The following applies: Staphylococcus aureus, Sensitivity Disk agar-N+5% Horse blood, inoculant 10^6 CFU/ml, read-out: minimum inhibiting concentration (MIC). The procedure: as §1
The test system of series [6] is S. aureus 209P JC-1. As to the kind of experiment: Antibiotic activities (MIC), agar dilution. It counts as cell-based. Conditions: Staphylococcus aureus, Sensitivity Disk agar-N+5% Horse blood, inoculant 10^6 CFU/ml, read-out: minimum inhibiting concentration (MIC). How it is done:
as §1

For series [7], the system named is E. coli NIHJ JC-2. Nature of the series: Antibiotic activities (MIC), agar dilution. The series is classed as cell-based. The following applies: Escherichia coli, NIHJJC2, Sensitivity Disk agar-N+5% Horse blood, inoculant 10^6 CFU/ml, read-out: minimum inhibiting concentration (MIC). How it is done:
as §1

Series [8] concerns S. pneumoniae PRC9 (penicillin-hyperresistant strain). As to the kind of experiment: Antibiotic activities (MIC), agar dilution. It counts as cell-based. The following applies: Streptococcus pneumoniae, Sensitivity Disk agar-N+5% Horse blood, inoculant 10^6 CFU/ml, read-out: minimum inhibiting concentration (MIC). The procedure:
as §1

In series [9] the test system is Staphylococcus aureus MF126 (MRSA). As to the kind of experiment: Therapeutic effect on mice subjected to general infection with MRSA. It counts as in vivo. The following applies: cyclophosphamide-treated mice, subcutaneous with cilastatin 2 and 4 hours after infection, survival rate on seventh day. How it is done: The therapeutic effect of representative compounds among the novel carbapenem derivatives according to the present invention on mice subjected to general infection with MRSA were assayed by the following method, and the results are shown in Table 2. Specifically, cyclophosphamide (200 mg/kg) was administered intraperitoneally to mice (n=8), and, four days after the administration of cyclophosphamide, Staphylococcus aureus MF126 (MRSA) was inoculated intraperitoneally to infect the mice with MRSA. Cilastatin (1 mg/mouse) and the carbapenem compound in an indicated amount were subcutaneously administered two hours and four hours after the infection. ED50 was calculated based on the survival rate on the seventh day after the infection.

Series [10] is classed as in vivo. The following applies: intravenously, 1,000 mg/kg, ICR male mice, three mice per group. How it is done: The compound of Example 1 was administered intravenously to mice (ICR, male, each group consisting of three mice) in an amount of 2,000 mg/kg.
The compound of Example 2 was administered intravenously to mice (ICR, male, each group consisting of three mice) in an amount of 1,000 mg/kg.

[11] abbreviates: Amount of inoculant: 2.8 × 10^6 CFU/mouse.
[12] abbreviates: Amount of inoculant: 5.9 × 10^6 CFU/mouse.

≈ marks a conversion by molar mass, not a printed value.

Regarding `CC(=O)c1ncn2cc(C3=C(C(=O)[O-])N4C(=O)[C@H]([C@@H](C)O)[C@H]4[C@H]3C)sc12.[Na+]` [Compound A, Sodium (1S,5R,6S)-2-(7-acetylimidazo[5,1-b]thiazol-2-yl)-6-((1R)-1-hydroxyethyl)-1-methyl-1-carbapen-2-em-3-carboxylate, reference compound], the MIC in series [1] is 0.031 µg/mL; in series [2], 0.25 µg/mL; in series [3] it was 8 µg/mL; in series [4] it was 0.031 µg/mL; in series [5], 1 µg/mL; in [6] it was 0.016 µg/mL. For the same molecule, the MIC in [7] is 0.125 µg/mL; in series [8] it was 0.063 µg/mL.

On to `C[C@@H](O)[C@H]1C(=O)N2C(C(=O)[O-])=C(c3cn4cnc(C(=O)c5ccccc5)c4s3)[C@H](C)[C@H]12.[Na+]` [Compound B, Sodium (1S,5R,6S)-2-(7-benzoylimidazo[5,1-b]thiazol-2-yl)-6-((1R)-1-hydroxyethyl)-1-methyl-1-carbapen-2-em-3-carboxylate, reference compound], for which the MIC in series [1] was less than 0.025 µg/mL; in series [2], 3.13 µg/mL; in [3], 6.25 µg/mL; in [4] it was 0.1 µg/mL; in series [5], 1.56 µg/mL; in series [6], less than 0.006 µg/mL. The MIC was determined as 3.13 µg/mL in series [7] and 0.1 µg/mL in series [8].

For `C[C@@H](O)[C@H]1C(=O)N2C(C(=O)O)=C(SCCN=CN)C[C@H]12` [Compound C, Imipenem, reference compound], the MIC was determined as 0.063 µg/mL (≈ 0.21 µM) in [1]; 0.25 µg/mL (≈ 0.835 µM) in series [2]; 64 µg/mL (≈ 214 µM) in series [3]; 8 µg/mL (≈ 26.7 µM) in series [4]; 4 µg/mL (≈ 13.4 µM) in series [5]; 0.008 µg/mL (≈ 0.0267 µM) in series [6]. Moreover, the MIC in [7] worked out at 0.125 µg/mL (≈ 0.418 µM); in series [8], 0.25 µg/mL (≈ 0.835 µM).

Take `C[C@@H](O)[C@H]1C(=O)N2C(C(=O)O)=C(c3cn4cnc(C(=O)c5cccnc5)c4s3)[C@H](C)[C@H]12` [Example 1, Sodium (1S,5R,6S)-6-((1R)-1-hydroxyethyl)-1-methyl-2-[7-(pyridin-3-yl)carbonylimidazo[5,1-b]thiazol 2-yl]-1-carbapen-2-em-3-carboxylate]: the MIC in [1] is 0.016 µg/mL; in series [2], 1 µg/mL; in series [3], 4 µg/mL; in [4] it was 0.031 µg/mL; in series [5], 1 µg/mL; in series [6] it was less than 0.008 µg/mL. Also, the MIC in [7] amounted to 1 µg/mL; in series [8], 0.031 µg/mL.

In series [9] (setting [11]), `C[C@@H](O)[C@H]1C(=O)N2C(C(=O)[O-])=C(c3cn4cnc(C(=O)c5ccc[n+](CC(N)=O)c5)c4s3)[C@H](C)[C@H]12` [Example 2, (1S,5R,6S)-2-[7-(1-Carbamoylmethylpyridinium-3-yl)carbonylimidazo[5,1-b]thiazol-2-yl]-6-((1R)-1-hydroxyethyl)-1-methyl-1-carbapen-2-em-3-carboxylate] showed an ED50 of 0.07 mg/mouse. The “survival in acute toxicity test” value in [10] is recorded as “all of the mice survived”. Also, the MIC in series [1] is 0.016 µg/mL (≈ 0.0323 µM); in series [2], 0.063 µg/mL (≈ 0.127 µM); in series [3] it was 2 µg/mL (≈ 4.04 µM); in series [4], 0.031 µg/mL (≈ 0.0626 µM); in [5], 0.5 µg/mL (≈ 1.01 µM); in [6], less than 0.008 µg/mL. Besides, the MIC in series [7] and in [8] was 0.031 µg/mL (≈ 0.0626 µM) each time.

The molecule `C[C@@H](O)[C@H]1C(=O)N2C(C(=O)O)=C(c3cn4cnc(C(=O)[C@@H]5CCCN5)c4s3)[C@H](C)[C@H]12` [Example 11, Sodium (1S,5R,6S)-6-((1R)-1-hydroxyethyl)-1-methyl-2-[7-((2S)-pyrrolidin-2-yl)carbonylimidazo[5,1-b]thiazol-2-yl]-1-carbapen-2-em-3-carboxylate] yielded an ED50 in series [9] (setting [11]) of 0.25 mg/mouse.

On to `C[C@@H](O)[C@H]1C(=O)N2C(C(=O)[O-])=C(c3cn4cnc(C(=O)c5cc(SCCN)c[n+](CC(=O)O)c5)c4s3)[C@H](C)[C@H]12` [Example 37, (1S,5R,6S)-2-[7-[5-(2-Aminoethyl)thio-1-carboxylmethylpyridinium-3-yl]carbonylimidazo[5,1-b]-thiazol-2-yl]-6-((1R)-1-hydroxyethyl)-1-methyl-1-carbapen-2-em-3-carboxylate], for which the ED50 in [9] (Amount of inoculant: 2.5 × 10^6 CFU/mouse) is given as 0.139 mg/mouse.

Take `C[C@@H](O)[C@H]1C(=O)N2C(C(=O)[O-])=C(c3cn4cnc(C(=O)c5ccc[n+](CC(N)=O)c5)c4s3)C[C@H]12` [Example 39, (5R,6S)-2-[7-(1-Carbamoylmethylpyridinium-3-yl)carbonylimidazo[5,1-b]thiazol-2-yl]-6-((1R)-1-hydroxyethyl)-1-carbapen-2-em-3-carboxylate]: the ED50 in series [9] (Amount of inoculant: 2.9 × 10^6 CFU/mouse) came out at 0.02 mg/mouse. Moreover, the MIC in series [1] turned out to be 0.031 µg/mL (≈ 0.0644 µM); in [2], 0.031 µg/mL (≈ 0.0644 µM); in series [3] it was 1 µg/mL (≈ 2.08 µM); in series [4], 0.063 µg/mL (≈ 0.131 µM); in [5], 0.25 µg/mL (≈ 0.519 µM); in series [6], 0.008 µg/mL (≈ 0.0166 µM). Moreover, the MIC in series [7] and in [8] was 0.031 µg/mL (≈ 0.0644 µM) in each case.

`C[C@@H](O)[C@H]1C(=O)N2C(C(=O)[O-])=C(c3cn4cnc(C(=O)c5ccc[n+](CCNS(N)(=O)=O)c5)c4s3)[C@H](C)[C@H]12` [Example 65, (1S,5R,6S)-6-((1R)-1-Hydroxyethyl)-1-methyl-2-[7-[1-(2-sulfamoylaminoethyl)pyridinium-3-yl]carbonylimidazo[5,1-b]thiazol-2-yl]-1-carbapen-2-em-3-carboxylate] displayed an ED50 in [9] (setting [12]) of 0.32 mg/mouse.

`CN[C@H](CC(C)C)C(=O)N[C@H]1C(=O)N[C@@H](CC(N)=O)C(=O)N[C@H]2C(=O)N[C@H]3C(=O)N[C@H](C(=O)N[C@H](C(=O)O)c4cc(O)cc(O)c4-c4cc3ccc4O)[C@H](O)c3ccc(c(Cl)c3)Oc3cc2cc(c3O[C@@H]2O[C@H](CO)[C@@H](O)[C@H](O)[C@H]2O[C@H]2C[C@](C)(N)[C@H](O)[C@H](C)O2)Oc2ccc(cc2Cl)[C@H]1O` [Vancomycin, reference compound]: the values for the ED50 in series [9] (setting [11]) and in [9] (setting [12]) were 0.50 mg/mouse and 0.71 mg/mouse, respectively.
